Columns and labels:
[1] = system: human hepatocytes in primary cultures; assay: Hepatotoxic effect in primary human hepatocytes, Trypan blue exclusion and Hoechst staining; assay type: cell-based
Method: […]. […] […].
Hoechst staining was employed for detection of apoptosis. […] 45 min.

[2] = system: human hepatocytes (HEPG-2)
Method: (§1) The hepatotoxic effects of SCP-M1 were evaluated in human hepatocytes (HEPG-2) and in human primary cultures of normal liver cells. […] Phase contrast, microscopy, Trypan blue exclusion, Hoechst staining, and FAS-ligand and CAR (constitutive androstane receptor) induction were used as criteria. […] HEPG-2 cells were grown and maintained in EMEM medium containing NEAA (nonessential amino acids), supplemented with 10% fetal bovine serum (FBS), and incubated at 37° C. with a constant supply of 5% CO2. Primary human liver cells were grown in HCM medium (Walkersville, Md.), and maintained in HMM medium (Walkersville, Md.) at 37° C. with 5% CO2. 80% confluent cultures of HEPG2 and primary hepatocytes growing in 6- and 24-well plates, respectively were held 6-8 hr in serum-free medium (EMEM, 0.5% FBS for HEPG2 and HMM [Clonetics, Walkersville, Md.] for primary hepatocytes) before the addition of analgesics.

[3] = system: CAR (constitutive androstane receptor)
Method: as §1
(§2) The up-regulation of FAS-ligand (FAS-L) and activation of CAR (constitutive androstane receptor) were analyzed by Western blot. Briefly, the cell extracts were made, and adjusted for protein concentrations by the Bio-rad method. About 15-20 μg protein were loaded onto an 8-16% gel (Bio-rad), and electrophoresis was conducted for 2 hr at 120 V. The proteins were transferred onto nitrocellulose membrane at 30 V for 60 min at 4° C.

FAS-ligand = system: FAS-ligand
Method: as §1, §2

[4] = system: Complete Freund's Adjuvant (CFA)-induced thermal hyperalgesia; assay: CFA-induced thermal hyperalgesia (paw withdrawal latency, Hargreaves); assay type: in vivo, male CD-1 mice; conditions: 2.5 mmol/kg by oral gavage at 48 hours post-CFA; latency measured 30 minutes to 6 hour after drug; ANOVA drug effect p=0.014
Method: To determine whether the SCP-M series has analgesic activity, its effect on Complete Freund's Adjuvant (CFA)—induced thermal hyperalgesia was accessed. Under halothane anesthesia, male CD-1 mice were injected with 0.1 ml of CFA (Calbiochem, USA) to the glabrous surface of one hind paw. When injected into the footpad, CFA produces localized inflammation and hyperalgesia that appears within two hours and is present for 7 to 10 days (Iadorola, et al., 1988). At 48-hours post-CFA (time of peak hyperalgesia), each mouse received by oral gavage 2.5 mmol/kg of SCP-M1 or vehicle. The latency to withdraw the paw from a thermal stimulus (Hargreaves, et al., 1988) was measured using an analgesiometer (IITC Life Sciences, Inc., Woodland Hills, Calif.) according to the technique of Hargreaves, et al. The stimulus intensity was set to produce baseline latencies of about 10-15 seconds, and a 20 second maximum latency was used. Thermal hyperalgesia was measured before drug administration (pre-drug baseline), and again at 30 minutes, 1 hour, 2 hour, 3 hour, 4 hour, 5 hour, and 6 hour after drug administration.
No other statistically significant effects were found (time effect: F(6,90)=0.486, p=0.817; drugxtime interaction: F(6,90)=0.634, p=0.793). The effects of SCP-M1 on CFA-induced thermal hyperalgesia are shown as a percentage of pre-drug baseline in FIG. 1.

CAR activation [3] | SMILES | apoptosis by Trypan blue exclusion and Hoechst staining ([1]; human) | apoptotic cell death by Hoechst staining [2] | pro-apoptotic FAS-ligand up-regulation (FAS-ligand) | analgesic effect on CFA-induced thermal hyperalgesia vs vehicle treated controls [4] | apoptosis by Trypan blue exclusion and Hoechst staining ([1]; human hepatocytes in primary cultures, treated 6-8 hr at 37° C.)
reduced effects | O=C(CNS(=O)(=O)c1ccccc1C(=O)O)Nc1ccc(O)cc1 [SCP-M1, 2-{[(4-hydroxyphenyl)carbamoyl]methylsulfamoyl}benzoic acid] | enhanced apoptosis was caused by acetaminophen but not SCP-M1 | practically ineffective in inducing cell death | reduced effects | significant analgesic effect | 
 | CC(=O)Nc1ccc(O)cc1 [acetaminophen, reference compound] |  |  |  |  | enhanced apoptosis

— US6806291B1, “Analgesic compounds, their synthesis and pharmaceutical compositions containing them” (The Foundation for the LSU Health Sciences Center, priority 2003, dated 2004)
